Test results published in PubChem BioAssay (NCI).
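At the GI50, growth is halved. TGI denotes the concentration required for complete inhibition of growth.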

Tests used:
Experiment in all cases: DTP human tumour cell line panel, 384-well format
BT-549 breast = tested on: BT-549 breast
OVCAR-3 ovarian = tested on: OVCAR-3 ovarian
SW-620 colon = tested on: SW-620 colon
SNB-19 CNS = tested on: SNB-19 CNS
HS 578T breast = tested on: HS 578T breast
HOP-62 NSCLC = tested on: HOP-62 NSCLC
NCI-H460 NSCLC = tested on: NCI-H460 NSCLC
MDA-MB-435 melanoma = tested on: MDA-MB-435 melanoma
LOX IMVI melanoma = tested on: LOX IMVI melanoma
RPMI-8226 leukemia = tested on: RPMI-8226 leukemia
MCF7 breast = tested on: MCF7 breast
HCT-15 colon = tested on: HCT-15 colon
CCRF-CEM leukemia = tested on: CCRF-CEM leukemia
T-47D breast = tested on: T-47D breast
SK-MEL-5 melanoma = tested on: SK-MEL-5 melanoma
M14 melanoma = tested on: M14 melanoma
NCI-H226 lung = tested on: NCI-H226 lung
IGROV1 ovarian = tested on: IGROV1 ovarian
RXF 393 renal = tested on: RXF 393 renal
SK-MEL-28 melanoma = tested on: SK-MEL-28 melanoma
DU-145 prostate = tested on: DU-145 prostate
NCI-H522 lung = tested on: NCI-H522 lung
MOLT-4 leukemia = tested on: MOLT-4 leukemia
TK-10 renal = tested on: TK-10 renal
NCI-H322M lung = tested on: NCI-H322M lung
SF-268 CNS = tested on: SF-268 CNS
UACC-257 melanoma = tested on: UACC-257 melanoma
CAKI-1 renal = tested on: CAKI-1 renal
MDA-MB-231 breast = tested on: MDA-MB-231 breast
UO-31 renal = tested on: UO-31 renal
COLO 205 colon = tested on: COLO 205 colon
SF-539 CNS = tested on: SF-539 CNS
HCC-2998 colon = tested on: HCC-2998 colon
HOP-92 NSCLC = tested on: HOP-92 NSCLC
SR leukemia = tested on: SR leukemia
OVCAR-8 ovarian = tested on: OVCAR-8 ovarian
SK-OV-3 ovarian = tested on: SK-OV-3 ovarian
ACHN renal = tested on: ACHN renal
EKVX NSCLC = tested on: EKVX NSCLC
MALME-3M melanoma = tested on: MALME-3M melanoma
SNB-75 CNS = tested on: SNB-75 CNS
HCT-116 colon = tested on: HCT-116 colon
OVCAR-5 ovarian = tested on: OVCAR-5 ovarian
A498 renal = tested on: A498 renal
NCI/ADR-RES ovarian = tested on: NCI/ADR-RES ovarian
PC-3 prostate = tested on: PC-3 prostate
KM12 colon = tested on: KM12 colon
786-0 renal = tested on: 786-0 renal
SN12C renal = tested on: SN12C renal
HL-60(TB) leukemia = tested on: HL-60(TB) leukemia
U251 glioblastoma = tested on: U251 glioblastoma
A549 NSCLC = tested on: A549 NSCLC
MDA-MB-468 breast = tested on: MDA-MB-468 breast
SF-295 CNS = tested on: SF-295 CNS
NCI-H23 lung = tested on: NCI-H23 lung
OVCAR-4 ovarian = tested on: OVCAR-4 ovarian
K-562 leukemia = tested on: K-562 leukemia
HT29 colon = tested on: HT29 colon

Structure (SMILES): CN1CCC(CNc2ccc3ncc(-c4cccc(OC(F)(F)F)c4)n3n2)CC1
- GI50 (BT-549 breast): 1.4 µM
- TGI (BT-549 breast): 2.71 µM
- GI50 (OVCAR-3 ovarian): 1.62 µM
- TGI (OVCAR-3 ovarian): 3.01 µM
- GI50 (SW-620 colon): 1.6 µM
- TGI (SW-620 colon): 2.98 µM
- GI50 (SNB-19 CNS): 1.74 µM
- TGI (SNB-19 CNS): 3.17 µM
- GI50 (HS 578T breast): 1.59 µM
- TGI (HS 578T breast): 2.95 µM
- GI50 (HOP-62 NSCLC): 1.62 µM
- TGI (HOP-62 NSCLC): 3 µM
- GI50 (NCI-H460 NSCLC): 1.71 µM
- TGI (NCI-H460 NSCLC): 3.15 µM
- GI50 (MDA-MB-435 melanoma): 1.71 µM
- TGI (MDA-MB-435 melanoma): 3.1 µM
- GI50 (LOX IMVI melanoma): 1.74 µM
- TGI (LOX IMVI melanoma): 3.14 µM
- GI50 (RPMI-8226 leukemia): 1.37 µM
- TGI (RPMI-8226 leukemia): 2.67 µM
- GI50 (MCF7 breast): 1.45 µM
- TGI (MCF7 breast): 2.8 µM
- GI50 (HCT-15 colon): 1.58 µM
- TGI (HCT-15 colon): 2.97 µM
- GI50 (CCRF-CEM leukemia): 1.8 µM
- TGI (CCRF-CEM leukemia): 3.21 µM
- GI50 (T-47D breast): 1.77 µM
- TGI (T-47D breast): 3.17 µM
- GI50 (SK-MEL-5 melanoma): 1.12 µM
- TGI (SK-MEL-5 melanoma): 2.33 µM
- GI50 (M14 melanoma): 1.49 µM
- TGI (M14 melanoma): 2.82 µM
- GI50 (NCI-H226 lung): 1.48 µM
- TGI (NCI-H226 lung): 2.82 µM
- GI50 (IGROV1 ovarian): 1.55 µM
- TGI (IGROV1 ovarian): 2.94 µM
- GI50 (RXF 393 renal): 1.35 µM
- TGI (RXF 393 renal): 2.64 µM
- GI50 (SK-MEL-28 melanoma): 1.75 µM
- TGI (SK-MEL-28 melanoma): 3.13 µM
- GI50 (DU-145 prostate): 2.05 µM
- TGI (DU-145 prostate): 4.51 µM
- GI50 (NCI-H522 lung): 1.56 µM
- TGI (NCI-H522 lung): 2.9 µM
- GI50 (MOLT-4 leukemia): 1.31 µM
- TGI (MOLT-4 leukemia): 2.59 µM
- GI50 (TK-10 renal): 1.7 µM
- TGI (TK-10 renal): 3.11 µM
- GI50 (NCI-H322M lung): 1.92 µM
- TGI (NCI-H322M lung): 3.8 µM
- GI50 (SF-268 CNS): 1.65 µM
- TGI (SF-268 CNS): 3.04 µM
- GI50 (UACC-257 melanoma): 1.62 µM
- TGI (UACC-257 melanoma): 2.98 µM
- GI50 (CAKI-1 renal): 1.38 µM
- TGI (CAKI-1 renal): 2.71 µM
- GI50 (MDA-MB-231 breast): 1.61 µM
- TGI (MDA-MB-231 breast): 2.97 µM
- GI50 (UO-31 renal): 1.66 µM
- TGI (UO-31 renal): 3.04 µM
- GI50 (COLO 205 colon): 1.79 µM
- TGI (COLO 205 colon): 3.19 µM
- GI50 (SF-539 CNS): 1.53 µM
- TGI (SF-539 CNS): 2.87 µM
- GI50 (HCC-2998 colon): 1.43 µM
- TGI (HCC-2998 colon): 2.76 µM
- GI50 (HOP-92 NSCLC): 1.65 µM
- TGI (HOP-92 NSCLC): 3.02 µM
- GI50 (SR leukemia): 1.25 µM
- TGI (SR leukemia): 2.52 µM
- GI50 (OVCAR-8 ovarian): 1.61 µM
- TGI (OVCAR-8 ovarian): 2.99 µM
- GI50 (SK-OV-3 ovarian): 1.67 µM
- TGI (SK-OV-3 ovarian): 3.05 µM
- GI50 (ACHN renal): 1.59 µM
- TGI (ACHN renal): 2.96 µM
- GI50 (EKVX NSCLC): 1.48 µM
- TGI (EKVX NSCLC): 2.9 µM
- GI50 (MALME-3M melanoma): 1.56 µM
- TGI (MALME-3M melanoma): 2.91 µM
- GI50 (SNB-75 CNS): 1.5 µM
- TGI (SNB-75 CNS): 2.86 µM
- GI50 (HCT-116 colon): 1.59 µM
- TGI (HCT-116 colon): 2.98 µM
- GI50 (OVCAR-5 ovarian): 1.61 µM
- TGI (OVCAR-5 ovarian): 3.21 µM
- GI50 (A498 renal): 1.42 µM
- TGI (A498 renal): 2.73 µM
- GI50 (NCI/ADR-RES ovarian): 1.62 µM
- TGI (NCI/ADR-RES ovarian): 3.02 µM
- GI50 (PC-3 prostate): 1.26 µM
- TGI (PC-3 prostate): 2.62 µM
- GI50 (KM12 colon): 0.375 µM
- TGI (KM12 colon): 1.42 µM
- GI50 ([…]-0 renal): 1.66 µM
- TGI (786-0 renal): 3.05 µM
- GI50 (SN12C renal): 1.55 µM
- TGI (SN12C renal): 2.91 µM
- GI50 (HL-60(TB) leukemia): 1.25 µM
- TGI (HL-60(TB) leukemia): 2.53 µM
- GI50 (U251 glioblastoma): 1.81 µM
- TGI (U251 glioblastoma): 3.22 µM
- GI50 (A549 NSCLC): 1.72 µM
- TGI (A549 NSCLC): 3.12 µM
- GI50 (MDA-MB-468 breast): 1.1 µM
- TGI (MDA-MB-468 breast): 2.31 µM
- GI50 (SF-295 CNS): 1.45 µM
- TGI (SF-295 CNS): 2.78 µM
- GI50 (NCI-H23 lung): 1.54 µM
- TGI (NCI-H23 lung): 2.94 µM
- GI50 (OVCAR-4 ovarian): 1.74 µM
- TGI (OVCAR-4 ovarian): 3.19 µM
- GI50 (K-562 leukemia): 1.63 µM
- TGI (K-562 leukemia): 3.04 µM
- GI50 (HT29 colon): 1.66 µM
- TGI (HT29 colon): 3.09 µM
